The source of these data is patent publication US20120010115A1, “PRESERVATIVE SYSTEM AND COMPOSITION BASED ON GLYCINATE AND DIHYDROXYPROPYL QUATERNARY AMMONIUM SALT COMBINATION” (CONOPCO, INC., D/B/A UNILEVER, priority 2010, published 2012).

The test concerns Pseudomonas aeruginosa ATCC 9027. As to the kind of experiment: Challenge Test for the Evaluation of Preservative Capacity of Liquid Detergent and Personal Products. In kind it is cell-based. The settings on record: aqueous formula, each active 5%, pH 7.6, inoculum 1.06E+07 (Log 7). The protocol: Experiments were conducted to evaluate antimicrobial activity against Pseudomonas aeruginosa of aqueous formulas containing 2,3-dihydroxypropyl trimethyl ammonium chloride (Glyceryl Quat), sodium cocoyl glycinate and combinations of these two materials. Samples were prepared at room temperature by mixing together sodium cocoyl glycinate and/or Glyceryl Quat and water. The pH was adjusted by addition of aqueous hydrochloric acid to reach a 7.6 value. Amounts of each of the active components was 5%. Test Method: Challenge Test for the Evaluation of Preservative Capacity of Liquid Detergent and Personal Products Test Microorganism: Pseudomonas aeruginosa ATCC 9027 obtained from American Type Culture Collection, Manassas, Va. 20108. Procedure: 20 grams of product were inoculated with 0.2 ml of the microorganism at a level of 1.06E+07 or Log 7. A single inoculation was performed. At 2 day, 7 day, 14 day and 21 day time points after inoculation a 1 gram sample was aseptically removed into a neutralizing fluid (TAT Broth) and plated using Letheen Agar. The plates were incubated at 30° C. for 7 days. At the end of the incubation time the plates were removed and examined for microbial growth. Calculation of Log Reduction: The microorganisms recovered were converted into Log10 and compared to initial inoculum count which then determined the Log Reduction. Logarithmic functions are the inverse of exponential functions. Log reduction was determined by the initial inoculum count minus the counts at each sampling time point.

As for `C[N+](C)(C)CC(O)CO.[Cl-]` (centres unmarked) [Glyceryl Quat, 2,3-dihydroxypropyl trimethyl ammonium chloride], the “Log Reduction Value” reads like this: (2 day after inoculation) 2.1; (7 day after inoculation) 1.5; (14 day after inoculation) 2.8; (21 day after inoculation) 3.4.

Turning to sodium cocoyl glycinate, the “Log Reduction Value” is reported as 1.1 (2 day after inoculation), 1.1 (7 day after inoculation), 0.8 (14 day after inoculation) and 0.2 (21 day after inoculation).
